Our source for the Ki values is patent US20060128724A1, “Pyrazole-substituted aminoheteroaryl compounds as protein kinase inhibitors” (AGOURON PHARMACEUTICALS, INC., priority 2004, published 2006).

pKi: −log10 of the molar value.

T1 sequence (P08581 974-1390 limits assumed): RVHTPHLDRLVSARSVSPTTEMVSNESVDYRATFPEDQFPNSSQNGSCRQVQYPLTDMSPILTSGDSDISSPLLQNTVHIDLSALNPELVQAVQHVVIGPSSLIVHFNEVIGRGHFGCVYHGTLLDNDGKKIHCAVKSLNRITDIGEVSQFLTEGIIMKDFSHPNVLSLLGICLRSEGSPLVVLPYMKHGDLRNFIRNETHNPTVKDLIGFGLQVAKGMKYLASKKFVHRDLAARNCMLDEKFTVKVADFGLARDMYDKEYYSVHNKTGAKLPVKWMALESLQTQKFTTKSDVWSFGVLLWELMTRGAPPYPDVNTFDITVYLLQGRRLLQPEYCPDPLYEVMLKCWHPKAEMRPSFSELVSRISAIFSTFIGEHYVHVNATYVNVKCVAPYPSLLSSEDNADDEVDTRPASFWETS

The first experiment addresses T1, c-MET (HGFR) (Homo sapiens, UniProt P08581).
T1 construct: purchased Upstate 14-526
Nature of the experiment: HGFR Continuous-Coupled Spectrophotometric Assay. Type of experiment: biochemical. Particulars: Met-2 substrate peptide, 50 nM HGFR, 37° C.; read-out: Met Ki. The text has this:
The following in vitro assay may be used to determine the level of activity and effect of the different compounds of the present invention on one or more of the PKs. Similar assays can be designed along the same lines for any PK using techniques well known in the art.
The general procedure is as follows: compounds and kinase assay reagents are introduced into test wells. The assay is initiated by addition of the kinase enzyme. Enzyme inhibitors reduce the measured activity of the enzyme.
In the continuous-coupled spectrophotometric assay the time-dependent production of ADP by the kinase is determined by analysis of the rate of consumption of NADH by measurement of the decrease in absorbance at 340 nm. As the PK produces ADP it is re-converted to ATP by reaction with phosphoenol pyruvate and pyruvate kinase. Pyruvate is also produced in this reaction. Pyruvate is subsequently converted to lactate by reaction with lactate dehydrogenase, which simultaneously converts NADH to NAD.
HGFR Continuous-Coupled Spectrophotometric Assay
This assay analyzes the tyrosine kinase activity of HGFR on the Met-2 substrate peptide, a peptide derived from the activation loop of the HGFR.
• 1. […] Dissolve up in 200 mM HEPES, pH 7.5 at 10 mM stock. • 3. 1 M PEP (phospho-enol-pyruvate) in 200 mM HEPES, pH 7.5 • 4. 100 mM NADH (B-Nicotinamide Adenine Dinucleotide, Reduced Form) in 200 mM HEPES, pH 7.5 • 5. 4 M MgCl2 (Magnesium Chloride) in ddH2O • 6. 1 M DTT (Dithiothreitol) in 200 mM HEPES, pH 7.5 • 7. 15 Units/mL LDH (Lactic Dehydrogenase) • 8. 15 Units/mL PK (Pyruvate Kinase) • 9. 5M NaCl dissolved in ddH2O • 10. Tween-20 (Protein Grade) 10% Solution • 11. 1 M HEPES buffer: (N-[2-Hydroxethyl]piperazine-N-[2-ethanesulfonic acid]) Sodium Salt. Dissolve in ddH2O, adjust pH to 7.5, bring volume to 1 L. Filter at 0.1 μm. • 12. […] 100% DMSO (SIGMA) • 14. […] Beckman DU-650 w/micro cell holders • 18. Beckman 4-position micro cell cuvette Procedure:
Prep Dilution Buffer (DB) for Enzyme (For 30 mL prep) • 1. DB final concentration is 2 mM DTT, 25 mM NaCl2, 5 mM MgCl2, 0.01% Tween-20, and 50 mM HEPES buffer, pH 7.5. • 2. Make up 50 mM HEPES by adding 1.5 mL 1 M HEPES into 28.1 mL of ddH2O. Add rest of the reagents. Into 50 mL conical vial, add 60 μL of 1M DTT, 150 μL 5M NaCl2, 150 μL 1M MgCl2, and 30 μL of 10% Tween-20 to give total volume of 30 mL. • 3. […] Aliquot out DB at 1 mL/tube and label tubes as “DB HGFR” • 5. Note: This can be prepared and stored ahead of time. • 6. Freeze un-used aliquots in microcentrifuge tubes at −20° C. freezer. […] For compound dilution plate, add 4 μL of 10 mM stock into column 1 of plate, and bring volume to 100 μL with 100% DMSO. • 2. Set up the Precision 2000 dilution method. A final concentration of 200 μM compound in 50% DMSO, 100 mM HEPES (1:2 serial dilution). Prep Coupled Enzymatic Buffer:
1. Final concentration in assay:
• 2. For a 10 mL reaction buffer add 10 μL of 1M PEP, 33 μL of 100 mM NADH, 50 μL of 4M MgCl2, 20 μL of 1M DTT, 6 μL of 500 mM ATP, and 500 μL of 10 mM Met-2 peptide into 100 mM HEPES buffer pH 7.5 and vortex/mix. • 3. Add coupling enzymes, LDH and PK, into reaction mix. Mix by gentle inversion. Running Samples
1. Spectrophotometer settings:
• 2. Add 85 μL of CE reaction mix into each well of assay plate. • 3. Add 5 μL of diluted compound into a well of the assay plate. • 4. Add 5 μL of 50% DMSO for negative control into last column of assay plate. • 5. Mix with multi-channel pipettor or orbital shaker. • 6. Pre-incubate for 10 minutes at 37° C. • 7. Add 10 μL of 500 nM HGFR to each well of assay plate; the final HGFR concentration is 50 nM in a total final volume of 100 μL. • 8. Measure activity for 10 minutes at λ=340 nm and 37° C.
Regarding `Cc1ccc(Cl)c(C(C)Oc2cc(Br)cnc2N)c1Cl` (stereo not shown) [Example 142, 5-Bromo-3-[1-(2,6-dichloro-3-methyl-phenyl)ethoxy]-pyridin-2-ylamine], the negative-log Ki (pKi) is 5.60.

Still in this experiment, the particulars now being: Met-2 substrate peptide, 50 nM HGFR, 37° C.; read-out: c-Met Ki.
As to `CC(=O)N1CC(n2cc(-c3cnc(N)c(OC(C)c4c(Cl)ccc(F)c4Cl)c3)cn2)C1` (stereo not shown) [Example 110, 5-[1-(1-acetylazetidin-3-yl)-1H-pyrazol-4-yl]-3-[1-(2,6-dichloro-3-fluorophenyl)ethoxy]pyridin-2-amine], the pKi was 7.49.
Same read-out and setting: next, `CCN1CCC(n2cc(-c3cnc(N)c(OC(C)c4c(Cl)ccc(F)c4Cl)c3)cn2)CC1` (stereo not shown) [Example 43, 3-[1-(2,6-Dichloro-3-fluoro-phenyl)-ethoxy]-5-[1-(1-ethyl-piperidin-4-yl)-1H-pyrazol-4-yl]-pyridin-2-ylamine]: 8.00; `CC(Oc1cc(-c2cnn(C(C)(C)C(=O)N3CCCC3)c2)cnc1N)c1c(Cl)ccc(F)c1Cl` (stereo not shown) [Example 57, 2-(4-{6-Amino-5-[1-(2,6-dichloro-3-fluoro-phenyl)-ethoxy]-pyridin-3-yl}-pyrazol-1-yl)-2-methyl-1-pyrrolidin-1-yl-propan-1-one]: 6.37.
Still for that read-out and setting: next, `CC(Oc1cc(-c2ccn(C3CCNCC3)n2)cnc1N)c1c(Cl)ccc(F)c1Cl` (stereo not shown) [Example 75, 3-[1-(2,6-Dichloro-3-fluoro-phenyl)-ethoxy]-5-(1-piperidin-4-yl-1H-pyrazol-3-yl)-pyridin-2-ylamine]: 7.42.
Take `C[C@@H](Oc1cc(-c2cnn(C3CCN(C(=O)CO)CC3)c2)cnc1N)c1c(Cl)ccc(F)c1Cl` [Example 47, 1-[4-(4-{6-Amino-5-[(R)-1-(2,6-dichloro-3-fluoro-phenyl)-ethoxy]-pyridin-3-yl}-pyrazol-1-yl)-piperidin-1-yl]-2-hydroxy-ethanone]: the pKi is 8.40.
Consider `CC(Oc1cc(-c2cnn(C3CC4CCC(C3)N4)c2)cnc1N)c1c(Cl)ccc(F)c1Cl` (stereo not shown) [Example 99, 5-[1-(8-azabicyclo[3.2.1]oct-3-yl)-1H-pyrazol-4-yl]-3-[1-(2,6-dichloro-3-fluorophenyl)ethoxy]pyridin-2-amine], for which the negative logarithm of the Ki (pKi) is 8.30.
With `CC(Oc1cc(-c2cnn(C(C)(C)C(=O)NCCN3CCCC3)c2)cnc1N)c1c(Cl)ccc(F)c1Cl` (stereo not shown) [Example 21, 2-(4-{6-Amino-5-[1-(2,6-dichloro-3-fluoro-phenyl)-ethoxy]-pyridin-3-yl}-pyrazol-1-yl)-N-(2-pyrrolidin-1-yl-ethyl)-isobutyramide], the pKi was 7.22.
On the same count and under the same terms, next, `CC(Oc1cc(-c2cnn(C(C)(C)CO)c2)cnc1N)c1c(Cl)ccc(F)c1Cl` (stereo not shown) [Example 59, 2-(4-{6-Amino-5-[1-(2,6-dichloro-3-fluoro-phenyl)-ethoxy]-pyridin-3-yl}-pyrazol-1-yl)-2-methyl-propan-1-ol]: 7.85; `CC(Oc1cc(-c2cnn(C3CCN(CC(N)=O)CC3)c2)cnc1N)c1c(Cl)ccc(F)c1Cl` (stereo not shown) [Example 98, 2-[4-(4-{6-amino-5-[1-(2,6-dichloro-3-fluorophenyl)ethoxy]pyridin-3-yl}-1H-pyrazol-1-yl)piperidin-1-yl]acetamide]: 8.15; `Cc1nn(C(C)(C)C(=O)NCCCN(C)C)cc1-c1cnc(N)c(OC(C)c2c(Cl)ccc(F)c2Cl)c1` (stereo not shown) [Example 36, 2-(4-{6-Amino-5-[1-(2,6-dichloro-3-fluoro-phenyl)-ethoxy]-pyridin-3-yl}-3-methyl-pyrazol-1-yl)-N-(3-dimethylamino-propyl)-isobutyramide]: 7.05.
`Cc1ccn(-c2cnc(N)c(OC(C)c3c(Cl)ccc(F)c3Cl)c2)n1` (stereo not shown) [Example 77, 3-[1-(2,6-Dichloro-3-fluoro-phenyl)-ethoxy]-5-(3-methyl-pyrazol-1-yl)-pyridin-2-ylamine]: the pKi is 5.72.
Still for that read-out and setting: next, `CC(Oc1cc(-c2cnn(C(C)(C)COCCN3CCCC3)c2)cnc1N)c1c(Cl)ccc(F)c1Cl` (stereo not shown) [Example 62, 3-[1-(2,6-Dichloro-3-fluoro-phenyl)-ethoxy]-5-{1-[1,1-dimethyl-2-(2-pyrrolidin-1-yl-ethoxy)-ethyl]-1H-pyrazol-4-yl}-pyridin-2-ylamine]: 6.64.

As a reminder, the pKi is the Ki on a negative log10 scale, so that one unit is a factor of ten.
